Experiments:
3T3 fibroblasts [1] = assay: Cytotoxicity of GDP and TPP, MTT assay; assay type: cell-based; conditions: concentrations higher than 5 mM, 24 hours of culture
Protocol: FIG. 3 illustrates the comparison of the cytotoxicity of GDP and TPP at different concentrations; FIG. 3A: light microscopy images of 3T3 fibroblasts with different concentrations of GDP and TPP added to the culture media after 24 hours; FIG. 3B: Quantitative analysis, using MTT assay, of the cytotoxicity of TPP and GDP to 3T3 fibroblasts at different concentrations after 24 hours.
Crosslinking of chitosan using GDP occurs due to the electrostatic attractions between the anionic phosphate groups of GDP and the cationic amine groups of chitosan. Another anionic crosslinker used in the art is tripolyphosphate (TPP), which has been widely used to fabricate chitosan nanoparticles, microparticles and fibers (Pati et al., 2011, Carbohyd Res, 346: 2582). The cytotoxicity of GDP was compared to tripolyphosphate (TPP) at concentrations from 0.05 mM to 50 mM using 3T3 fibroblasts.

3T3 fibroblasts [2] = conditions: concentrations higher than 5 mM; recent study (Pati et al., 2012); cited from earlier work

| SMILES | cytotoxicity compared to TPP (3T3 fibroblasts [1]) | cytotoxicity (3T3 fibroblasts [2]) |
| --- | --- | --- |
| Nc1nc2c(ncn2[C@@H]2O[C@H](COP(=O)(O)OP(=O)(O)O)[C@@H](O)[C@H]2O)c(=O)[nH]1 [GDP, Guanosine 5′-Diphosphate] | significantly less cytotoxic |  |
| O=P(O)(O)OP(=O)(O)OP(=O)(O)O [TPP, tripolyphosphate] |  | cytotoxicity of TPP at concentrations higher than 5 mM |
